# Reference: the C3SDB collision cross section collection
# Several values for one entry are separate records, joined by “and”; a condition that tells them apart may be missing. Identical values can stand only once.
# Conditions: instrument: DT, single field, calibrated with Agilent tune mix (Agilent)
Compound,collision cross section (N2) ([M-H]-) [Å²],collision cross section (N2) ([M+H]+),other results
C[C@H](CCC(=O)NCCS(=O)(=O)O)[C@H]1CC[C@H]2[C@@H]3CC[C@@H]4C[C@H](O)CC[C@]4(C)[C@H]3CC[C@]12C [Taurolithocholic acid],204.62,,collision cross section (N2) ([M+H-H2O]+): 220.6 Å²
COc1ccc2[nH]cc(C[C@H](N)C(=O)O)c2c1 [5-methoxytryptophan],154.36,,collision cross section (N2) ([M+Na]+): 156.2 Å²
"CCCCC/C=C/C=C1/C(=O)C=C[C@@H]1C/C=C\CCCC(=O)O [15-Deoxy-delta-12,14-PGJ2]",,,collision cross section (N2) ([M+Na]+): 192.5 Å²
CC(=O)N[C@@H](CC(=O)O)C(=O)O [N-Acetyl-L-aspartic acid],129.21,,collision cross section (N2) ([M+Na]+): 139 Å²
OCCc1c[nH]c2ccc(O)cc12 [5-Hydroxytryptophol],134.49,138.7 Å²,
O=C(O)/C=C/c1cnc[nH]1 [Urocanic acid],118.78,134.1 Å²,
O=C1O[C@H]([C@@H](O)CO)C(O)=C1O [L-Ascorbic acid],,138.6 Å²,
Nc1nc(=O)c2ncn([C@H]3C[C@H](O)[C@@H](CO)O3)c2[nH]1 [Deoxyguanosine],156.76,,collision cross section (N2) ([M+Na]+): 171.7 Å²
O=C(CO)COP(=O)(O)O [Dihydroxyacetone phosphate],,,collision cross section (N2) ([M+Na]+): 146.7 Å²
CCCCCCCCCCCCCC(=O)O [Myristic acid],159.21,,
CC1CNC(=O)NC1=O (stereo not given) [Dihydrothymine],,131.2 Å²,
O=c1nc[nH]c2c1ncn2[C@@H]1O[C@H](COP(=O)(O)OP(=O)(O)O)[C@@H](O)[C@H]1O [Inosine diphosphate],176.13,185.6 Å²,
NC(CCCC(N)C(=O)O)C(=O)O (stereo not given) [Diaminopimelic acid],134.28,140.8 Å²,
C[C@H](CCCC(C)(C)O)[C@H]1CC[C@H]2[C@@H]3CC=C4C[C@@H](O)CC[C@]4(C)[C@H]3CC[C@]12C [25-Hydroxycholesterol],202.81,,
CSCC[C@H](NC=O)C(=O)O [N-Formylmethionine],134.09,,
CCCCCCCCCCCCCCCC(=O)O[C@H](CC(=O)[O-])C[N+](C)(C)C [L-Palmitoylcarnitine],204.49,214 Å²,
Nc1nc(=O)c2ncn([C@H]3C[C@H](O)[C@@H](COP(=O)(O)OP(=O)(O)O)O3)c2[nH]1 [dGDP],,187.7 Å²,
NC[C@H](O)c1ccc(O)c(O)c1 [Norepinephrine],131.99,,collision cross section (N2) ([M+H-H2O]+): 137.3 Å² and 136.8 Å²
O=C(O)[C@H]1OC(O)[C@H](O)[C@@H](O)[C@H]1O (stereo partly drawn) [D-galacturonic acid],128.3,,collision cross section (N2) ([M+Na]+): 143.7 Å²
O=C(O)C(O)Cc1ccccc1 (racemic) [DL-3-Phenyllactic acid],134.74,137.8 Å²,
NCCCCNCCCN [Spermidine],,131.9 Å²,
CSCC[C@H](NC(=O)CC[C@H](N)C(=O)O)C(=O)O [gamma-Glutamylmethionine],,165.1 Å²,
CCCCC/C=C\C/C=C\C/C=C\CCCCC(=O)O [Gamma-Linolenic acid],172.84,,

Compound,collision cross section (N2) ([M-H]-) [Å²],collision cross section (N2) ([M+H]+),other results
C[C@@H]1NC(=O)N[C@@H]1CCCCCC(=O)O [Dethiobiotin],,144.1 Å²,collision cross section (N2) ([M+2Na-3H]-): 162.06 Å²
O=C(CO)[C@@H](O)[C@H](O)[C@H](O)COP(=O)(O)O [D-Fructose-6-phosphate],,,collision cross section (N2) ([M+Na]+): 154.2 Å²
CCCCCC/C=C/CCCCCCCCCC(=O)O [trans-Vaccenic acid],174.95,,
O=C(O)c1cc(=O)c2ccccc2[nH]1 [Kynurenic acid],,137 Å²,collision cross section (N2) ([M+Na-2H]-): 149.51 Å²
CC(=O)SCCNC(=O)CCNC(=O)[C@H](O)C(C)(C)COP(=O)(O)OP(=O)(O)OC[C@H]1O[C@@H](n2cnc3c(N)ncnc32)[C@H](O)[C@@H]1OP(=O)(O)O [Acetyl-CoA],,244.7 Å²,
O=C(O)Cc1c[nH]c2ccccc12 [Indoleacetic acid],,136.2 Å²,
Cc1ncc(CO)c(C(=O)O)c1O [4-Pyridoxic acid],,135.3 Å² and 135.8 Å²,
O=C(O)C(O)Cc1ccc(O)cc1 (stereo not given) [Hydroxyphenyllactic acid],139.4,,
CC(=O)N[C@@H](CC(=O)O)C(=O)N[C@@H](CCC(=O)O)C(=O)O [N-Acetylaspartylglutamate],,,collision cross section (N2) ([M-H2O-H]-): 156.77 Å²
N[C@H](CC(=O)O)C(=O)O [D-Aspartic acid],116.91,,
N[C@@H](Cc1ccc(O)c(I)c1)C(=O)O [3-Iodo-L-tyrosine],,158.8 Å²,collision cross section (N2) ([M+Na-2H]-): 148.03 Å²
COc1ccc2c(c1)[nH]c1c(C)nccc12 [Harmine],145.28,146 Å²,
O=c1ccn([C@@H]2O[C@H](COP(=O)(O)O)[C@@H](O)[C@H]2O)c(=O)[nH]1 [Uridine 5'-monophosphate],,,collision cross section (N2) ([M+Na]+): 171.8 Å²
Nc1nc(=O)c2ncn([C@H]3C[C@H](O)[C@@H](COP(=O)(O)OP(=O)(O)O)O3)c2[nH]1 [2'-Deoxyguanosine 5'-diphosphate],,,collision cross section (N2) ([M-H2O-H]-): 174.28 Å²
N[C@@H](CCSSCC[C@H](N)C(=O)O)C(=O)O (racemic) [DL-Homocystine],,157.9 Å²,collision cross section (N2) ([M+Na-2H]-): 152.2 Å²
C[C@]12C[C@H](O)[C@H]3[C@@H](CCC4=CC(=O)CC[C@@]43C)[C@@H]1CC[C@@H]2C(=O)CO [Corticosterone],186.46,186.8 Å²,
NC(=O)c1ccc[n+]([C@@H]2O[C@H](COP(=O)([O-])O)[C@@H](O)[C@H]2O)c1 [beta-Nicotinamide D-ribonucleotide],,,collision cross section (N2) ([M]+): 165.2 Å²
O=c1ccn([C@H]2C[C@H](O)[C@@H](COP(=O)(O)O)O2)c(=O)[nH]1 [Deoxyuridine monophosphate],156,,collision cross section (N2) ([M+Na]+): 167.5 Å²
CC(=O)N[C@@H](CCC(N)=O)C(=O)O [N-Acetylglutamine],136.82,,collision cross section (N2) ([M+Na]+): 144.4 Å²
NC(=O)c1ccc[n+]([C@@H]2O[C@H](COP(=O)(O)OP(=O)(O)OC[C@H]3O[C@@H](n4cnc5c(N)ncnc54)[C@H](OP(=O)(O)O)[C@@H]3O)[C@@H](O)[C@H]2O)c1 [Nicotinamide adenine dinucleotide phosphate],228.27,,
O=C(O)Cc1c[nH]c2ccc(O)cc12 [5-Hydroxyindoleacetate],,140.9 Å²,
Nc1ccn([C@@H]2O[C@H](COP(=O)(O)OP(=O)(O)O)[C@@H](O)[C@H]2O)c(=O)n1 [Cytidine 5'-diphosphate],171.31,,
